In PubChem BioAssay AID2060888 (Molecular Pharmacology Branch, DTP, NCI, 2025):

Test system: 695427-040-R-J1-PDC complex spheroid viability
Assay: Anticancer human tumor 695427-040-R-J1-PDC patient-derived colon adenocarcinoma cell line growth inhibition [RAS]
Conditions: for IC50: curve of first compound; for viability, T/C: stronger effect = lower value
Procedure, shortened: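 Multi-cell-type spheroids: tumor cells plus HUVEC endothelial cells and mesenchymal stem cells. RAS-pathway inhibitors were combined with targeted agents, each dosed in half-log steps down from clinical Cmax, or from 10 microM when Cmax was unknown.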
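Further: viability read after seven days of drug exposure.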
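Wherever viability, T/C is given: 100% = DMSO vehicle control viability.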

`CCc1c2c(nc3ccc(O)cc13)-c1cc3c(c(=O)n1C2)COC(=O)[C@]3(O)CC` + C#Cc1c(F)ccc2cc(O)cc(-c3ncc4c(N5CC6CCC(C5)N6)nc(OCC56CCCN5CC(F)C6)nc4c3F)c12 was tested, and the IC50 (second compound 0.0316 µM) was 119 nM, the IC50 (second compound 0.1 µM) was 122 nM and the IC50 (second compound 0.316 µM) was 93.3 nM. For the same compound, the IC50 (second compound 1 µM) was 59.7 nM, the IC50 (second compound 3.16 µM) was 10.7 nM and the IC50 (second compound 10 µM) was < 0.949 nM. It also gave a viability, T/C (second compound 0.0316 µM, first compound 0.000949 µM) of 89.1%, a viability, T/C (second compound 0.0316 µM, first compound 0.003 µM) of 89.8% and a viability, T/C (second compound 0.0316 µM, first compound 0.00949 µM) of 77.9%. It also gave a viability, T/C (second compound 0.0316 µM, first compound 0.03 µM) of 76%, a viability, T/C (second compound 0.0316 µM, first compound 0.0949 µM) of 53.5% and a viability, T/C (second compound 0.0316 µM, first compound 0.3 µM) of 30.4%. The viability, T/C (second compound 0.1 µM, first compound 0.000949 µM) was 96.1%, the viability, T/C (second compound 0.1 µM, first compound 0.003 µM) was 86.2% and the viability, T/C (second compound 0.1 µM, first compound 0.00949 µM) was 78.8%. It also gave a viability, T/C (second compound 0.1 µM, first compound 0.03 µM) of 72.2%, a viability, T/C (second compound 0.1 µM, first compound 0.0949 µM) of 58.7% and a viability, T/C (second compound 0.1 µM, first compound 0.3 µM) of 28.6%. It also gave a viability, T/C (second compound 0.316 µM, first compound 0.000949 µM) of 82%, a viability, T/C (second compound 0.316 µM, first compound 0.003 µM) of 79.9% and a viability, T/C (second compound 0.316 µM, first compound 0.00949 µM) of 70.7%. For the same compound, the viability, T/C (second compound 0.316 µM, first compound 0.03 µM) was 67.1%, the viability, T/C (second compound 0.316 µM, first compound 0.0949 µM) was 49.4% and the viability, T/C (second compound 0.316 µM, first compound 0.3 µM) was 25.7%. It also gave a viability, T/C (second compound 1 µM, first compound 0.000949 µM) of 73.8%, a viability, T/C (second compound 1 µM, first compound 0.003 µM) of 66.1% and a viability, T/C (second compound 1 µM, first compound 0.00949 µM) of 60.1%. For the same compound, the viability, T/C (second compound 1 µM, first compound 0.03 µM) was 59.8%, the viability, T/C (second compound 1 µM, first compound 0.0949 µM) was 45.8% and the viability, T/C (second compound 1 µM, first compound 0.3 µM) was 27.2%. For the same compound, the viability, T/C (second compound 3.16 µM, first compound 0.000949 µM) was 54.3%, the viability, T/C (second compound 3.16 µM, first compound 0.003 µM) was 52% and the viability, T/C (second compound 3.16 µM, first compound 0.00949 µM) was 48.7%. It also gave a viability, T/C (second compound 3.16 µM, first compound 0.03 µM) of 46%, a viability, T/C (second compound 3.16 µM, first compound 0.0949 µM) of 40.1% and a viability, T/C (second compound 3.16 µM, first compound 0.3 µM) of 24.9%. For the same compound, the viability, T/C (second compound 10 µM, first compound 0.000949 µM) was 37.4%, the viability, T/C (second compound 10 µM, first compound 0.003 µM) was 36.5% and the viability, T/C (second compound 10 µM, first compound 0.00949 µM) was 36.8%. The viability, T/C (second compound 10 µM, first compound 0.03 µM) was 28.1%, the viability, T/C (second compound 10 µM, first compound 0.0949 µM) was 26.2% and the viability, T/C (second compound 10 µM, first compound 0.3 µM) was 17.2%.
For `NC1c2ccccc2OC12CCN(c1cnc3c(N4CCCc5ncccc54)n[nH]c3n1)CC2` (stereo not given), the viability, T/C (compound 0.0316 µM) was 78.6% [middle of 4 runs], the viability, T/C (compound 0.1 µM) was 64.9% [middle of 4 runs] and the viability, T/C (compound 0.316 µM) was 64.5% [middle of 4 runs]. For the same compound, the viability, T/C (compound 1 µM) was 55.7% [middle of 4 runs], the viability, T/C (compound 3.16 µM) was 49.4% [middle of 4 runs] and the viability, T/C (compound 10 µM) was 43.5% [middle of 4 runs].
For `CCc1c2c(nc3ccc(O)cc13)-c1cc3c(c(=O)n1C2)COC(=O)[C@]3(O)CC` + CCn1c(-c2cc(N3CCN(C)CC3)cnc2C(C)OC)c2c3cc(ccc31)-c1csc(n1)CC(NC(=O)C1CC1C)C(=O)N1CCCC(N1)C(=O)OCC(C)(C)C2, the IC50 (second compound 0.000949 µM) was 107 nM, the IC50 (second compound 0.003 µM) was 73.2 nM and the IC50 (second compound 0.00949 µM) was 56.8 nM. The IC50 (second compound 0.03 µM) was 7.69 nM, the IC50 (second compound 0.0949 µM) was < 0.949 nM and the IC50 (second compound 0.3 µM) was < 0.949 nM. For the same compound, the viability, T/C (second compound 0.000949 µM, first compound 0.000949 µM) was 88.8%, the viability, T/C (second compound 0.000949 µM, first compound 0.003 µM) was 87% and the viability, T/C (second compound 0.000949 µM, first compound 0.00949 µM) was 75.6%. For the same compound, the viability, T/C (second compound 0.000949 µM, first compound 0.03 µM) was 61.8%, the viability, T/C (second compound 0.000949 µM, first compound 0.0949 µM) was 55.4% and the viability, T/C (second compound 0.000949 µM, first compound 0.3 µM) was 33.7%. It also gave a viability, T/C (second compound 0.003 µM, first compound 0.000949 µM) of 103%, a viability, T/C (second compound 0.003 µM, first compound 0.003 µM) of 86.1% and a viability, T/C (second compound 0.003 µM, first compound 0.00949 µM) of 66%. The viability, T/C (second compound 0.003 µM, first compound 0.03 µM) was 63.6%, the viability, T/C (second compound 0.003 µM, first compound 0.0949 µM) was 48% and the viability, T/C (second compound 0.003 µM, first compound 0.3 µM) was 36.3%. For the same compound, the viability, T/C (second compound 0.00949 µM, first compound 0.000949 µM) was 82.3%, the viability, T/C (second compound 0.00949 µM, first compound 0.003 µM) was 64% and the viability, T/C (second compound 0.00949 µM, first compound 0.00949 µM) was 65%. For the same compound, the viability, T/C (second compound 0.00949 µM, first compound 0.03 µM) was 57.8%, the viability, T/C (second compound 0.00949 µM, first compound 0.0949 µM) was 50% and the viability, T/C (second compound 0.00949 µM, first compound 0.3 µM) was 26.6%. For the same compound, the viability, T/C (second compound 0.03 µM, first compound 0.000949 µM) was 59.2%, the viability, T/C (second compound 0.03 µM, first compound 0.003 µM) was 51.6% and the viability, T/C (second compound 0.03 µM, first compound 0.00949 µM) was 55.3%. It also gave a viability, T/C (second compound 0.03 µM, first compound 0.03 µM) of 35.3%, a viability, T/C (second compound 0.03 µM, first compound 0.0949 µM) of 41.6% and a viability, T/C (second compound 0.03 µM, first compound 0.3 µM) of 27.9%. For the same compound, the viability, T/C (second compound 0.0949 µM, first compound 0.000949 µM) was 45.2%, the viability, T/C (second compound 0.0949 µM, first compound 0.003 µM) was 41.7% and the viability, T/C (second compound 0.0949 µM, first compound 0.00949 µM) was 46.7%. The viability, T/C (second compound 0.0949 µM, first compound 0.03 µM) was 31.8%, the viability, T/C (second compound 0.0949 µM, first compound 0.0949 µM) was 30.7% and the viability, T/C (second compound 0.0949 µM, first compound 0.3 µM) was 20.5%. The viability, T/C (second compound 0.3 µM, first compound 0.000949 µM) was 38.1%, the viability, T/C (second compound 0.3 µM, first compound 0.003 µM) was 37.6% and the viability, T/C (second compound 0.3 µM, first compound 0.00949 µM) was 28.2%. It also gave a viability, T/C (second compound 0.3 µM, first compound 0.03 µM) of 30.8%, a viability, T/C (second compound 0.3 µM, first compound 0.0949 µM) of 23.8% and a viability, T/C (second compound 0.3 µM, first compound 0.3 µM) of 16.9%.
